Assay results: patent US20130310352A1, “DEXAMETHASONE COMBINATION THERAPY” (priority 2010, published 2013)

Legend:
Type in all cases: cell-based, human
[1] = test system: normal PBMCs from healthy volunteers; test: Apoptosis of normal PBMCs; conditions: 24 hours
Procedure: (§1) MM cell lines ARP1, ARK, MM.1S, MM.1R and U266 were maintained in RPMI-1640 medium supplemented with 10% fetal bovine serum, 100 U/ml penicillin and 100 μg/ml streptomycin at 37° C. and 5% CO2 Primary MM cells and MM BMSCs were isolated from bone marrow aspirates of myeloma patients. PBMCs were obtained from healthy volunteers. The study was approved by the Institutional Review Board at The University of Texas M.D. Anderson Cancer Center. Anti-caspase-3, caspase-9, PARP, Bim, XIAP, cyclin D1, pp 70S6K (Thr389) and p27(Kip1) antibodies were purchased from Cell Signaling. Anti-bcl-2, Bc1-XL, Akt, pAkt (Thr 308), pAkt (Ser 473), p70S6K and β-actin antibodies were purchased from Santa Cruz. Compound A was dissolved in DMSO at 10 mM as stock solution. Dexamethasone and Propidium iodide (PI) were purchased from Sigma-Aldrich. Recombinant human IL6 was purchased from R&D Systems. FITC conjugated Annexin V was obtained from Invitrogen.
(§2) Apoptotic cells were determined as Annexin V positive cells.
To examine whether compound A induces normal PBMCs apoptosis, normal PBMCs from different healthy volunteers were incubated with 0 to 1 mM compound A for 24 hours. Cells apoptosis rate were measured as described above. […] Thus, these findings indicate that compound A has low cytotoxicity toward resting PBMCs.
(A). Five MM cell lines ARP1, ARK, MM.1S, MM.1R and U266 were cultured in the presence of 0 to 1 mM compound A. Cells were harvested after 1 day or 3 days of treatment. Compound A induced MM cell apoptosis were measured by Annexin V staining as described in Materials and Methods. (B). Same MM cell lines were treated with 0 to 1 mM compound A for 1 or 3 days. Cell growths were assessed by MTS assay. (C). Representative histograms of primary MM cells treated with compound A. (D). Data from 3 patients showing a dose-dependent induction of apoptosis in freshly isolated primary MM cells. Cells were treated with different doses of compound A for 1 day. (E). PBMCs isolated from 3 healthy volunteers were treated with compound A for 1 day.

[2] = test system: MM cell lines ARP1, ARK, MM.1S, MM.1R and U266; test: Annexin V apoptosis assay, MM cell lines
Procedure: Briefly, MM cells were cultured in 24-well plates and treated with 0 to 1 mM final concentrations of compound A for 24 or 72 hours. The cells were washed twice with cold PBS and resuspended in Annexin V binding buffer (Invitrogen). MM cells were stained with FITC-conjugated Annexin V and propidium iodide (PI) for 15 min at room temperature. Apoptotic cells were determined as Annexin V positive cells.
To evaluate the effect of compound A on myeloma cells, MM cell lines ARP1, ARK, MM.1S, MM.1R and U266 were treated with different doses of compound A for 24 hours or 72 hours. Compound A induced MM cells apoptosis were measured as described in Materials and Methods.
Five MM cell lines ARP1, ARK, MM.1S, MM.1R and U266 were cultured in the presence of 0 to 1 mM compound A. Cells were harvested after 1 day or 3 days of treatment. Compound A induced MM cell apoptosis were measured by Annexin V staining as described in Materials and Methods. […] Same MM cell lines were treated with 0 to 1 mM compound A for 1 or 3 days. […] Representative histograms of primary MM cells treated with compound A. (D). […] Cells were treated with different doses of compound A for 1 day.

ARP1 cells = test: Cell cycle analysis (PI, flow cytometry); conditions: ARP1, 1 μM, 24 hours
Procedure: MM cell lines ARP1, MM.1S and MM.1R were cultured with or without 1 μM compound A for 24 hours. Then, cells were harvested and permeabilized in 70% ethanol at 4° C. for overnight, and incubated with 50 μg/ml PI and 20 μg/ml RNase A for 15 min. DNA content was analyzed by flow cytometry and FlowJo software.
To study the mechanism of compound A induced MM cells growth inhibition and apoptosis, it was examined whether compound A treatment affects MM cell cycle.
(A). Representative histogram of ARP1 treated with 1 μM compound A for 1 day. (B). […] Cell cycle was tested as described.

CD138+ primary MM cells = test: Apoptosis of primary MM cells cocultured with BMSCs ex vivo; conditions: 10 μM, 24 hours, cocultured 1:1 with BMSCs
Procedure: as §1, §2
To evaluate compound A function in primary MM cells, the study was extended to CD138+ primary MM cells freshly isolated from myeloma patients. […]
(A). […] Compound A induced MM cell apoptosis were measured by Annexin V staining as described in Materials and Methods. […] Cell growths were assessed by MTS assay. […]

[3] = test system: MM cell lines ARP1, ARK, MM.1S, MM.1R and U266; test: MTS cell growth assay, all tested MM cell lines; conditions: 0 to 1 mM, 1 or 3 days
Procedure: as §1
All experiments were performed in triplicate.
(A). Five MM cell lines ARP1, ARK, MM.1S, MM.1R and U266 were cultured in the presence of 0 to 1 mM compound A. Cells were harvested after 1 day or 3 days of treatment. Compound A induced MM cell apoptosis were measured by Annexin V staining as described in Materials and Methods. (B). Same MM cell lines were treated with 0 to 1 mM compound A for 1 or 3 days. Cell growths were assessed by MTS assay. (C). […]

[4] = test system: MM cell lines ARP1, MM.1S and MM.1R; test: Apoptosis with or without IL-6 addition; conditions: 10 μM compound A, rhIL-6
Procedure: IL-6 is an important survival cytokine for MM (Klein B, Zhang X G, Jourdan M, et al. Interleukin-6 is the central tumor growth factor in vitro and in vivo in multiple myeloma. Eur Cytokine Netw. 1990; 1 (4):193-201; Gado K, Domjan G, Hegyesi H, Falus A. Role of INTERLEUKIN-6 in the pathogenesis of multiple myeloma. Cell Biol Int. 2000; 24 (4):195-209). […] For this purpose, different MM cell lines ARP1, MM.1S and MM.1R were cultured with or without recombinant hIL-6 (final concentration […]) and treated with or without 10 μM compound A for 2 days. As a positive control, MM.1S cells were treated with 40 μg/ml of dexamethasone with or without hIL-6 addition for the same period of time.
MM cell lines ARP1, MM.1S and MM.1R were cultured with 10 μM compound A for 3 days. rhIL-6 were added to final concentration of 5 ng/ml. As a positive control, MM.1S cells were treated with 40 μg/ml dexamethasone in the presence of 5 ng/ml of rhIL6 for the same time. Cells apoptosis rate was measured by annexin V staining. (B). Same MM cells were co-cultured with or without MM BMSC, and treated with 10 μM of compound A for 1 day. As a positive control, MM.1S cells were cocultured with or without BMSC and treated with 40 μg/ml dexamethasone for 1 day. CD138+ MM cells apoptosis rate was measured by Annexin V staining.

[5] = test system: p27 (Kip1) and cyclin D1 in MM cells; test: Immunoblotting, cell cycle regulators; conditions: 10 μM compound A
Procedure: as §1
(A). […] Compound A induced activation and cleavage of caspase-3, caspase-9 and PARP is shown. (B). Same MM cells treated with 10 μM compound A were lysed for western blotting. (C) RP1 cells were treated with 10 μM compound A for 1, 6, 12 and 24 hours.

U266 = test: Annexin V apoptosis assay
Procedure: Apoptotic cells were determined as Annexin V positive cells. […] Compound A induced MM cells apoptosis were measured as described in Materials and Methods.

[6] = test system: CD138− stromal cells (BMSCs); test: Cytotoxicity toward stromal cells in primary MM coculture; conditions: 0 to 1 mM, 24 hours, versus primary MM cells
Procedure: MM cell lines ARP1, ARK, MM.1S, MM.1R and U266 were maintained in RPMI-1640 medium supplemented with 10% fetal bovine serum, 100 U/ml penicillin and 100 μg/ml streptomycin at 37° C. and 5% CO2 Primary MM cells and MM BMSCs were isolated from bone marrow aspirates of myeloma patients. PBMCs were obtained from healthy volunteers. […] Compound A was dissolved in DMSO at 10 mM as stock solution. […] FITC conjugated Annexin V was obtained from Invitrogen.
Compound A-induced cell apoptosis was detected by Annexin V binding assay as previously described (Zheng Y, Cai Z, Wang S, et al. Macrophages are an abundant component of myeloma microenvironment and protect myeloma cells from chemotherapy drug-induced apoptosis. Blood. 2009; 114 (17):3625-3628). Briefly, MM cells were cultured in 24-well plates and treated with 0 to 1 mM final concentrations of compound A for 24 or 72 hours. The cells were washed twice with cold PBS and resuspended in Annexin V binding buffer (Invitrogen). MM cells were stained with FITC-conjugated Annexin V and propidium iodide (PI) for 15 min at room temperature. Apoptotic cells were determined as Annexin V positive cells.

## Nc1cc(C(F)(F)F)c(-c2cc(N3CCOCC3)nc(N3CCOCC3)n2)cn1 [compound A, 5-(2,6-di-morpholin-4-yl-pyrimidin-4-yl)-4-trifluoromethyl-pyridin-2-ylamine]
[1]; 0 to 1 mM
  toxicity toward normal PBMCs: comparably low toxicity
[1]; 10 μM
  PBMC apoptosis: less than 40%
[1]; 100 μM
  PBMC apoptosis: less than 40%
[2]; 0 to 1 mM, 24 hours or 72 hours, Annexin V
  MM cells apoptosis: in both a dose dependent and a time dependent manner
[2]; 24 hours, P<0.05 compared with control
  concentration inducing significant apoptosis in all tested MM cell lines: ≥ 10 µM
ARP1 cells
  G1 phase cells: increased
  S phase cells: decreased
CD138+ primary MM cells
  primary MM cells apoptosis: more than 70%
[3]
  MM cells growth inhibition: dose dependent growth inhibition
[4]
  effect of IL6 addition on compound A induced MM cell apoptosis: did not affect
[5]
  cyclin D1 expression: down-regulated
  p27 (Kip1) protein expression: up-regulated
U266
  sensitivity to compound A induced apoptosis compared to other MM cell lines: less sensitive
[6]
  cytotoxicity toward CD138− stromal cells: significantly lower cytotoxicity
